Test results taken from PMC10608985, “Retention Behavior of Anticancer Thiosemicarbazides in Biomimetic Chromatographic Systems and In Silico Calculations” (Molecules, 2023).

How the values were obtained:
[1] = HPLC lipophilicity on IAM (immobilized artificial membrane, phosphatidylcholine) stationary phase; assay type: physicochemical; settings: pH 7.4; for Log k IAM: Table S2; for log kw IAM: intercept, linear extrapolation to water; for log kw IAM / -S IAM: ACN/20 mM phosphate buffer; for -S IAM: slope of Soczewiński–Wachtmeister equation
Protocol: (§1) For the evaluation of the compounds the following stationary phases were used: C-18; biomimetic, IAM; cholesterol (Chol); immobilized proteins HSA and AGP. For the lipophilicity determination, MeOH (C-18, Chol) or ACN (IAM) were applied as the organic modifiers. The measurements were performed at pH 7.4 of the mobile phase. The regular changes in the retention of all solutes used as organic modifier content in the mobile phase on three studied stationary phases were found. It is expressed by the Soczewiński–Wachtmeister Equation (1):log k = log kw + S (% organic modifier)(1) where log kw—the intercept; S—the slope of regression curve. […] Log kw as well as S parameters are commonly applied as lipophilicity descriptors.
(§2) HPLC measurements were performed using a liquid chromatograph Knauer (Knauer, Berlin, Germany) with a dual pump, a 20 µL simple injection valve, and a UV–visible detector. The compounds were detected under UV light at 280 nm at room temperature. The retention time of an unretained solute (t0) was determined by the injection of a small amount of citric acid dissolved in water.
A Rexchrom IAM.PC.DD2 (12 μm, 100 × 4.6 mm, 300 Å) (Regis Technologies, Morton Grove, IL, USA) column was used as the stationary phase. The compounds were dissolved at a concentration of 0.5 mg × mL^−1 in MeOH. The mobile phases consisted of different volume fractions of ACN and 20 mM phosphate buffer; the aqueous phase maintained a pH = 7.4 (0.02 M KH2PO4, Na2HPO4 and 0.15 M KCl). The acetonitrile concentration ranged from 0.05 to 0.4 (v/v), depending on the structure of compound, at 0.05 intervals (Table S2 in the Supplementary Materials). The flow rate was 1 mL × min^−1.

[2] = HPLC lipophilicity on cholesterol (Chol) stationary phase; assay type: physicochemical; settings: pH 7.4; for Log k Chol: Table S3; for log kw Chol: intercept, linear extrapolation to water; for log kw Chol / -S Chol: MeOH/20 mM acetate buffer; for -S Chol: slope of Soczewiński–Wachtmeister equation
Protocol: as §1, §2
Cogent 4 UDC Cholesterol (150 × 2.1 mm, 4 µm) MicroSolv Technology Corporation (Leland, NC, USA) column was used. The mobile phase consisted of different volume mixtures of MeOH as the organic modifier and 20 mM acetate buffer as the aqueous phase, to obtain pH = 7.4. The concentrations of the organic modifier were in the range from 0.3 to 0.8 (v/v) with step 0.05 or 0.1 (Table S3 in the Supplementary Materials). The flow rate was 0.35 mL × min^−1.

[3] = biological target: T1, human serum albumin (HSA) (Homo sapiens, UniProt P02768); assay: HPLC on immobilized HSA column, affinity and % plasma–protein binding; assay type: in vitro ADME; settings: for log K HSA: binding equilibrium constant from calibration curve (Equation 8) of log k HSA; for fraction unbound: human, pH 7.4, % plasma–protein binding converted from log K HSA (Equation 10), read-out: %PPB HSA (converted); for log k HSA: retention on HSA column, 50 mM ammonium acetate pH 7.4 / propan-2-ol 85/15 (v/v)
T1 construct: purchased Chiralpac
T1 sequence (P02768 25-609): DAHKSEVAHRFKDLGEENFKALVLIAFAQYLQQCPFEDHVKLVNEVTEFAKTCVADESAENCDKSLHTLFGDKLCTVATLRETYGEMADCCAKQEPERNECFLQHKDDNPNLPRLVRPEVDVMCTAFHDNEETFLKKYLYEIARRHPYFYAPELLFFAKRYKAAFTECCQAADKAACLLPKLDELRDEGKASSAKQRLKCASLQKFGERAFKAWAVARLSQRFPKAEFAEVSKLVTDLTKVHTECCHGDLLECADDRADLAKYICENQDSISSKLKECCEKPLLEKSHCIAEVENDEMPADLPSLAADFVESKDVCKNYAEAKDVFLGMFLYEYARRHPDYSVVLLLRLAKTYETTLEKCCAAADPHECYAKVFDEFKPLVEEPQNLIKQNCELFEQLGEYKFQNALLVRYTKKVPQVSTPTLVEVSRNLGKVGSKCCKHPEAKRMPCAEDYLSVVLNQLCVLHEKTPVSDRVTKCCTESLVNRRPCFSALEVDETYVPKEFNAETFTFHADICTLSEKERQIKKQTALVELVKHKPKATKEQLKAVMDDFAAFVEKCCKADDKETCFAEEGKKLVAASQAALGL
Protocol: (§3) Measurements on HSA and AGP immobilized protein columns were carried out with […] isopropanol content in the aqueous mobile phase.
(§4) The standard calibration curve was used to predict log K values (K—binding equilibrium constant) of investigated compounds to HSA and AGP. Next, the log K values were converted into a percentage of plasma–protein binding (%PPB) of the compounds (Table 2). […] It is the lowest for compound 16 with -NO2 substituent, unsubstituted compound 1, and fluorine derivatives 2 and 9. In a group of […] derivatives in the same position of the phenyl ring, the %PPB to AGP increases with the increase in the atomic weight of the halogen atom and the lipophilicity of the molecule.
as §2
(§5) A human serum albumin (HSA) immobilized on the 5 µm silica gel column 100 × 3 mm (Chiralpac) and an α1-acid glycoprotein (AGP) immobilized on the 5 µm silica gel column 100 × 4 mm (Chiralpac) were used. The compounds were dissolved at 0.5 mg/mL concentration in 50% propan-2-ol and ammonium acetate solution (pH = 7.4) mixtures for HSA measurements. The mobile phase was composed of 50 mM ammonium acetate solution (pH = 7.4) and propan-2-ol at 85/15 (v/v) for AGP, respectively. The flow of mobile phases was 0.5 mL×min^−1. Log k values for the selected mobile phase were determined for all studied compounds and standard substances. The % protein plasma binding (% PPB) values were calculated from the calibration curve according to Valko et al..
(§6) Calibration of the protein columns: The column performance check and the calibration check were performed before measurements. The racemic mixture of warfarin was used for their performance evaluation. The following calibration set of drugs was applied: bromazepam, carbamazepine, diclofenac, nicardipine, nizatidine, piroxicam for HSA and bromazepam, chlorpromazine, imipramine, nicardipine, nizatidine, propranolol, and warfarin for AGP. The analytical standards were purchased from Sigma Aldrich Steinhen, Steinheim am Albuch, Germany). The drugs were dissolved at 0.5 mg/mL concentration in 50% propan-2-ol and ammonium acetate solution mixtures (pH = 7.4). The obtained log k values from HPLC were plotted against the log K values (K—binding equilibrium constant, log K—linearized PPB) based on the literature data for plasma–protein binding (%, PPB). The following relationships were obtained: log KHSA = 0.2513 (±0.0984) + 1.0525 (±0.1171) log k HSA(8) n=6, R=0.9761, R^2 = 0.9528, Radj2 = 0.9410, s = 0.1948 log KAGP = 0.1733 (±0.0574) + 0.8902 (±0.0787) log k AGP(9) n=7, R=0.9810, R^2 = 0.9623, Radj2 = 0.9548, s = 0.1113
(§7) Log K values were converted into %PPB using the following equation [15]:(10) %PPB=101×10^logK/1+10^logK

[4] = test system: α1-acid glycoprotein (AGP); assay: HPLC on immobilized AGP column, affinity and % plasma–protein binding; assay type: in vitro ADME, human; settings: for log K AGP: binding equilibrium constant from calibration curve (Equation 9) of log k AGP; for fraction unbound: human, pH 7.4, % plasma–protein binding converted from log K AGP (Equation 10), read-out: %PPB AGP (converted); for log k AGP: retention on AGP column, 50 mM ammonium acetate pH 7.4 / propan-2-ol 85/15 (v/v)
Protocol: as §3, §4, §2, §5, §6, §7

[5] = design: method as in Kozyra et al. [31]; settings: MeOH/20 mM acetate buffer, pH 7.4, ref Kozyra et al. [31], cited from earlier work; for log kw C-18: intercept of Soczewiński–Wachtmeister equation (water as mobile phase); for -S C-18: slope of Soczewiński–Wachtmeister equation

| SMILES | Log k IAM ([1]; ACN 0.10 v/v in mobile phase) | Log k IAM ([1]; ACN 0.15 v/v in mobile phase) | Log k IAM ([1]; ACN 0.20 v/v in mobile phase) | Log k IAM ([1]; ACN 0.25 v/v in mobile phase) | Log k IAM ([1]; ACN 0.30 v/v in mobile phase) | Log k IAM ([1]; ACN 0.35 v/v in mobile phase) | log kw IAM [1] | -S IAM [1] | Log k Chol ([2]; MeOH 0.30 v/v in mobile phase) | Log k Chol ([2]; MeOH 0.35 v/v in mobile phase) | Log k Chol ([2]; MeOH 0.40 v/v in mobile phase) | Log k Chol ([2]; MeOH 0.50 v/v in mobile phase) | Log k Chol ([2]; MeOH 0.60 v/v in mobile phase) | Log k Chol ([2]; MeOH 0.80 v/v in mobile phase) | log kw Chol [2] | -S Chol [2] | log K HSA [3] | fraction unbound [3] | log k HSA [3] | log K AGP [4] | further results |
| --- | --- | --- | --- | --- | --- | --- | --- | --- | --- | --- | --- | --- | --- | --- | --- | --- | --- | --- | --- | --- | --- |
| O=C(COc1ccccc1)NNC(=S)Nc1ccccc1 [Compound 1] | 0.548 | 0.284 | 0.085 | -0.142 | -0.518 | -0.490 | 1.0288 | 4.4559 | 0.979 | 0.857 | 0.620 | 0.110 | -0.157 | -1.006 | 2.2209 | 4.0307 | 1.0986 | 0.065 | 0.8050 | 0.4018 | Log k IAM ([1]; ACN 0.05 v/v in mobile phase): 0.999; Log k IAM ([1]; ACN 0.40 v/v in mobile phase): -0.556; Log k Chol ([2]; MeOH 0.45 v/v in mobile phase): 0.440; fraction unbound [4]: 0.277; log k AGP [4]: 0.2567; log kw C-18 [5]: 1.7866; -S C-18 [5]: 3.7611 |
| O=C(COc1ccccc1)NNC(=S)Nc1ccccc1F [Compound 2] | 0.692 | 0.455 | 0.234 | -0.010 | -0.358 | -0.461 | 1.1961 | 4.8953 | 0.744 | 0.656 | 0.441 | -0.037 | -0.314 | -1.104 | 1.9241 | 3.7822 | 1.2775 | 0.041 | 0.9750 | 0.3986 | Log k IAM ([1]; ACN 0.05 v/v in mobile phase): 0.968; fraction unbound [4]: 0.278; log k AGP [4]: 0.2531; log kw C-18 [5]: 2.0774; -S C-18 [5]: 4.3603 |
| O=C(COc1ccccc1)NNC(=S)Nc1ccccc1Cl [Compound 3] | 1.022 | 0.794 | 0.515 | 0.291 | -0.138 | -0.209 | 1.5588 | 5.2422 | 1.024 | 0.917 | 0.759 | 0.198 | -0.068 | -1.020 | 2.3437 | 4.1573 | 1.2059 | 0.049 | 0.9070 | 0.5523 | Log k Chol ([2]; MeOH 0.45 v/v in mobile phase): 0.461; fraction unbound [4]: 0.211; log k AGP [4]: 0.4257; log kw C-18 [5]: 2.3929; -S C-18 [5]: 4.5312 |
| O=C(COc1ccccc1)NNC(=S)Nc1ccccc1I [Compound 4] | 1.158 | 0.893 | 0.642 | 0.451 | -0.029 | -0.138 | 1.7099 | 5.3942 | 1.105 | 0.974 | 0.747 | 0.244 | -0.037 | -0.938 | 2.3754 | 4.1215 | 1.5037 | 0.021 | 1.1899 | 0.6707 | Log k Chol ([2]; MeOH 0.45 v/v in mobile phase): 0.519; fraction unbound [4]: 0.168; log k AGP [4]: 0.5588; log kw C-18 [5]: 2.4824; -S C-18 [5]: 4.4182 |
